Experimental data reported in PubChem BioAssay (NCI).
Where “and” joins values, the source holds several entries; their conditions need not be identical. Equal values may be shown once.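 Results reflect a 48-hour exposure of cells in 96-well plates to compound at five concentrations. GI50 marks 50% less growth. Definition used: TGI = concentration required for complete inhibition of growth.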

Legend:
Assay in all cases: NCI tumour cell line growth inhibition, 48 h
NCI/ADR-RES ovarian = tested on: NCI/ADR-RES ovarian
T-47D breast = tested on: T-47D breast
COLO 205 colon = tested on: COLO 205 colon
ACHN renal = tested on: ACHN renal
NCI-H522 lung = tested on: NCI-H522 lung
SF-295 CNS = tested on: SF-295 CNS
IGROV1 ovarian = tested on: IGROV1 ovarian
SK-MEL-28 melanoma = tested on: SK-MEL-28 melanoma
CCRF-CEM leukemia = tested on: CCRF-CEM leukemia
NCI-H226 lung = tested on: NCI-H226 lung

| Structure (SMILES) | GI50 (NCI/ADR-RES ovarian) [µM] | TGI (NCI/ADR-RES ovarian) [µM] | GI50 (T-47D breast) [nM] | TGI (T-47D breast) | GI50 (COLO 205 colon) [nM] | TGI (COLO 205 colon) | GI50 (ACHN renal) [µM] | TGI (ACHN renal) [µM] | GI50 (NCI-H522 lung) [nM] | TGI (NCI-H522 lung) | GI50 (SF-295 CNS) [nM] | TGI (SF-295 CNS) | GI50 (IGROV1 ovarian) [nM] | TGI (IGROV1 ovarian) | GI50 (SK-MEL-28 melanoma) [µM] | TGI (SK-MEL-28 melanoma) | GI50 (CCRF-CEM leukemia) | TGI (CCRF-CEM leukemia) | GI50 (NCI-H226 lung) | TGI (NCI-H226 lung) |
| --- | --- | --- | --- | --- | --- | --- | --- | --- | --- | --- | --- | --- | --- | --- | --- | --- | --- | --- | --- | --- |
| CC(=O)Nc1cccc(C#Cc2cncnc2Nc2ccc(OCc3cccc(F)c3)c(Cl)c2)c1 | 6.86 | > 25 | 3700 | > 25 µM | 9170 | > 25 µM | 6.09 | > 25 | 4470 | 23.9 µM | 6470 | > 25 µM | 4490 | > 25 µM | 17.1 | > 25 µM | 10200 nM | > 25 µM | 10000 nM | > 25 µM |
| COc1ccc(N(CC(=O)O)N=O)cc1 | – | > 100 | – | > 100 µM | – | > 100 µM | – | > 100 | – | > 100 µM | – | > 100 µM | – | > 100 µM | – | > 100 µM | – | > 100 µM | – | > 100 µM |
| CN(C)CCNC(=O)Nc1ccc(N(C)c2ccnc(Nc3ccc(CS(C)(=O)=O)cc3)n2)cc1 | > 25 | > 25 | > 25000 | > 25 µM | > 25000 | > 25 µM | > 25 | > 25 | > 16900 | > 25 µM | > 25000 | > 25 µM | > 25000 | > 25 µM | > 25 | > 25 µM | 16500 nM | > 25 µM | > 23700 nM | > 25 µM |
| C#COc1cccc(Nc2ncnc3cc(NC(=O)[C@@H](C)Cl)ccc23)c1 | 5.21 | 34.6 | 22500 | > 62.5 µM | 5300 | > 62.5 µM | 18.9 | > 62.5 | 3960 | 40.8 µM | 8220 | 61.2 µM | 5290 | > 62.5 µM | 14 | > 62.5 µM | 7450 nM | > 62.5 µM | 50100 nM | > 62.5 µM |
| Cn1cc(-c2ccc3ncc(-c4ccc(CC(=O)Nc5cc(C(C)(C)C)nn5C)cc4)cc3c2)cn1 | 0.749 | 6.77 | 617 | 5.91 µM | 2780 | > 20 µM | 0.689 | > 20 | 995 | 9.06 µM | 1580 | > 20 µM | 568 | > 20 µM | 3.57 | > 20 µM | 810 nM | 16.6 µM | 1050 nM | 13.3 µM |
| S=C(Sc1ccc(Cl)cc1)Sc1ccc(Cl)cc1 | 2.67 | 6.58 | 1940 | 5.72 µM | 2290 | 5.5 µM | 3.23 | 11 | 1110 | 2.33 µM | 1010 | 6.58 µM | 1810 | 3.47 µM | 1.89 | 3.49 µM | 409 nM | 2.56 µM | 2100 nM | 4.84 µM |
| CCc1ccc(Oc2c(-c3ccc(OCc4ccc(Cl)cc4)cc3O)nn(C)c2C(F)(F)F)cc1 | 0.905 | 4.47 | 248 | 0.936 µM | 457 | 1.73 µM | 0.385 | 1.7 | 303 | 1.94 µM | 947 | 2.51 µM | 654 | 2.7 µM | 1.26 | 2.91 µM | 454 nM | 4.82 µM | 1180 nM | 3.6 µM |
| Nc1ncnc2c1c(-c1ccc(Oc3ccccc3)cc1)nn2CC1SSCC1O (configuration not stated) | 6.61 | 17.6 | 653 | 1.85 µM | 1250 | 5.5 µM | 4.27 | 14.9 | 2620 | 9.49 µM | 6360 | 15.8 µM | 2440 | 8.31 µM | 0.131 | 0.92 µM | 138 nM | 32.5 µM | 3700 nM | 9.91 µM |
| CC[n+]1c(-c2ccccc2)c2cc(N)ccc2c2ccc(N)cc21 | – | > 100 | 323 | 2.91 µM and 15 µM | 612 | 2.24 µM and 7.14 µM | 14.1 | > 100 | – | 2.54 µM and 8.58 µM and 23.2 µM | 1510 | 13.7 µM and 15.5 µM and 29 µM | 522 | 10.2 µM and 12.9 µM | 0.607 | 2.12 µM and 8.02 µM | 2150 nM and 1200 nM and 4940 nM | 77 µM and 33 µM and 48.3 µM | 504 nM and 723 nM and 2650 nM | 4.55 µM and 5.64 µM and 13.5 µM |
| COC(=O)[C@]12CC[C@@H](C)[C@H](C)[C@@H]1C1=CC[C@@H]3[C@@]4(C)C(C=O)=C[C@@](C)(COS(C)(=O)=O)C4=CC[C@@]3(C)[C@]1(C)CC2 | 0.325 | 1.97 | 158 | 0.47 µM | 223 | 0.454 µM | 0.171 | 0.317 | 178 | 0.371 µM | 296 | 1.26 µM | 318 | 1.06 µM | 0.198 | 0.415 µM | 324 nM | 1.47 µM | 232 nM | 0.635 µM |
| OCC1OC(OC2(CO)OC(CO)C(O)C2O)C(O)C(O)C1O (configuration not stated) | > 100 | > 100 | > 100000 | > 100 µM | > 100000 | > 100 µM | > 100 | > 100 | > 100000 | > 100 µM | > 100000 | > 100 µM | > 100000 | > 100 µM | > 100 | > 100 µM | > 100000 nM | > 100 µM | > 100000 nM | > 100 µM |
| Cc1ccc2ccc3c4ccccc4ccc3c2c1 | 30.7 | > 100 | 23000 | 74.6 µM | 18000 | 32.6 µM | 31.9 | > 100 | 19100 | 51.7 µM | – | – | 20000 | 94.8 µM | 39.4 | > 100 µM | 22000 nM | 52.4 µM | 30300 nM | > 100 µM |
| CCOC(=O)c1cc(C(=O)c2ccc(OC)c(OC)c2)n2c1ccc1ccc3cccnc3c12 | 0.948 | > 100 | 2370 | > 100 µM | – | – | 2.4 | > 100 | 611 | > 100 µM | – | – | 2330 | > 100 µM | 3.7 | > 100 µM | 3130 nM | > 100 µM | 6860 nM | > 100 µM |
